According to US6686145B1, “Rigidized trimethine cyanine dyes” (Carnegie Mellon University, priority 1997, dated 2004):
Where no end group is shown, it is not given here. [ ]: non-standard residue; d: D form. Compound III = 6,7,9,10-tetrahydro-2-carboxymethyl-14-sulphonato-16,16,18,18-tetramethyl-7aH,8aH-bisindolinium[3,2-a,3'2'-a']pyrano[3,2-c,5,6-c']dipyridin-5-ium dye (NHS ester used for labelling); {C7NH2-CompoundIII} = C7 amino linker labelled with Compound III NHS ester; pY = N[C@@H](Cc1ccc(OP(=O)(O)O)cc1)C(=O)O

How the values were obtained:
[1] = biological target: Grb2 glutathione-S-transferase fusion protein (Homo sapiens, UniProt P62993); assay: Protein:peptide polarization binding assay; details: non-specific binding defined with 100 μM unlabelled peptide, 60 minutes
Experimental: A peptide of sequence E-pY-I-N-Q-S-V-P-K (E9K) was prepared by solid phase synthesis on an Applied Biosystems 431A peptide synthesizer using standard methods and materials. An excess of 6,7,9,10-tetrahydro-2-carboxymethyl-14-sulphonato-16,16,18,18-tetramethyl-7aH,8aH-bisindolinium[3,2-a;3′2′-a′]pyrano[3,2-c;5,6-c′]dipyridin-5-ium (Compound III), N-hydroxysuccinimide ester was coupled in DMSO in the presence of diisopropylethylamine to the free N-terminus of the protected peptide whilst still attached to the solid phase. After deprotection for two hours, the crude labelled peptide was purified by reverse phase HPLC, using a gradient from water/0.1%TFA to water:acetonitrile (40:60)/0.1%TFA over 60 minutes.
Various concentrations of Grb2 glutathione-S-transferase fusion protein and E9K labelled with Compound III in 20 mM MOPS pH7.4/10 mM DTT/005% Tween 20 were incubated in a final volume of 150 μl in black 96-well microplates (Dynatech) for 60 minutes. […] Polarization values were read on a Fluorolite FPM2™ plate reader (Jolley Research and Consulting Inc.) using a 530DF30 filter for excitation and 590DF45 filter for emission.

[2] = tested on: complementary probe oligonucleotide; assay: Nucleic acid FRET hybridization assay; format: binding; details: 560 nm excitation, 670 nm emission
Experimental: The oligonucleotides were deprotected for 17 hours at 40° C. and purified by reverse phase HPLC using a C18 column and a 40% TEAA/acetonitrile gradient. The desired peaks were collected, freeze dried and the samples were resuspended in sterile H2O.
Amino modified target and probe oligonucleotides were incubated with a 10-fold molar excess of 6,7,9,10-tetrahydro-2-carboxymethyl-14-sulphonato-16,16,18,18-tetramethyl-7aH,8aH-bisindolinium[3,2-a;3′2′-a′]pyrano[3,2-c;5,6-c′]dipyridin-5-ium (Compound III), N-hydroxysuccinimide ester and Cy5 NHS-ester dye (Amersham Pharmacia Biotech) respectively, in 0.1M sodium bicarbonate buffer (pH9), overnight at 22° C. The following morning, the oligonucleotides were ethanol precipitated and the resulting pellets were resuspended in H2O. […] Residues were resuspended into H2O and concentration of recovered material was determined.
Wells of a black, streptavidin coated 96-well plate were coated with either unlabelled or Compound III-labelled target oligonucleotides (20 pmol/well diluted in 100 μl PBS/1 MgCl2) for 120 minutes at ambient temperature. […] Finally, wells were washed vigorously with PBS and fluorescence intensity was measured on a fluorescence plate reader using a 560 nm excitation filter and a 670 nm emission filter (FIG. 7).

[3] = tested on: NF-kB-specific dsDNA; assay: Protein:DNA direct intensity binding assay; details: competitor 200 pmol/well (40 fold molar excess for p65) versus p65GST
Experimental: All HPLC purified oligonucleotides were obtained from Genosys Biotechnologies Ltd. Equimolar amounts of a biotinylated coding strand (5′ Biotin-[…] CCGCG 3′) and an unmodified non-coding strand (5′ […] 3′) specific for NF-kB were incubated together in a boiling water bath for 3 minutes and allowed to anneal by cooling over 2 hours.
Anti-GST antibody (3 mg/ml, 1.5 mg supplied/vial (0.5 ml) from Molecular Probes) was dialysed against 1 litre of 0.15M sodium chloride for 4 hours at room temperature and dialysis was continued overnight at 4° C. in a fresh solution of 0.15M sodium chloride. The following morning the antibody was dialysed against 1 litre of 0.1M sodium hydrogen carbonate for a maximum of 4 hours.
A 1 mg/ml solution of 6,7,9,10-tetrahydro-2-carboxymethyl-14-sulphonato-16,16,18,18-tetramethyl-7aH,8aH-bisindolinium[3,2-a;3′2′-a′]pyrano[3,2-c;5,6-c′]dipyridin-5-ium (Compound III), N-hydroxysuccinimide ester in DMSO was added gradually with stirring to the antibody at a ratio of 0.10 mg dye: 0.33 mg antibody. […]
Biotin-labelled NF-kB-specific dsDNA (2.5 pmol, diluted in 0.01 MMgCl2) was added to each well (final volume, 100 μl) of a 96-well streptavidin coated microplate (Boehringer Mannheim) and incubated at room temperature for 2 hours. […] The plate was read at Ex535/Em569 and Ex560/595 in the Biolumin 960 fluorescence microplate reader (Molecular Dynamics Inc.).

[4] = tested on: NF-kB-specific double stranded (ds) DNA; assay: Protein:DNA FRET binding assay; details: competitor 200 pmol/well (10 fold molar excess for p65), Ex520/Em670
Experimental: All HPLC purified NF-kB-specific oligonucleotides were obtained from Genosys Biotechnologies Ltd: a coding strand modified with a 5′ terminal primary amine (5′ NH2-[…] 3′) and an unmodified non-coding strand (5′ […] 3′). A 10-fold molar excess of Cy-5-NHS ester dye (Amersham Pharmacia Biotech) was incubated with the coding strand, in 0.1M sodium bicarbonate buffer (pH9), overnight at 22° C. The following morning the oligonucleotide was ethanol precipitated and then resuspended in water. The labelled coding strand was purified by reverse phase HPLC using a C18 column and a 60% TEAA/acetonitrile gradient. The peak containing labelled oligonucleotide was freeze dried and resuspended in water.
NF-kB-specific double stranded (ds) DNA was generated by incubating together equimolar amounts of the Cy-5 labelled coding strand (5′ Cy5-[…] […] 3′) and the unmodified non-coding strand (5′ […] […] 3′) in a boiling water bath for 3 minutes and allowing to anneal by cooling over 2 hours.
NF-kB p65 protein ([…]) was diluted to 1000 μl in 0.01M phosphate buffered saline. […]
A black microtitre plate (Dynatech) was used for the FRET assay. […] The plate was read at Ex520/Em670 in the Biolumin 960 fluorescence microplate reader (Molecular Dynamics Inc.).

[5] = Comparison of spectral properties of rigidized Cy3 and open chain Cy3 dyes; format: physicochemical
From the text: The spectral properties of the rigidized dye were compared with the known open chain Cy3.18.OH and Cy3.10.OH dyes (FIG. 2). The absorption maxima of the rigid dye shifted to the red by 12 nm in methanol and as expected it is 10-12 time brighter that the non-rigidized indocyanines.

Chain of Grb2 glutathione-S-transferase fusion protein (P62993 whole entry, the tested form may be a part): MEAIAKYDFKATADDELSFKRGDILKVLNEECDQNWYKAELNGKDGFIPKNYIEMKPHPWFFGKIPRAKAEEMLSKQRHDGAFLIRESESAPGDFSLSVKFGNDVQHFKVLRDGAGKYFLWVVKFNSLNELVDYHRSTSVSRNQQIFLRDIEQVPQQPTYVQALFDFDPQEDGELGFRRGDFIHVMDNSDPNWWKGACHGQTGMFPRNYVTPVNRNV

Compound: Compound III-labelled peptide: peptide E-pY-I-N-Q-S-V-P-K (E9K) labelled at the free N-terminus with Compound III ({Compound III}-E[pY]INQSVPK)
- binding to Grb2 protein as determined by change in polarization [1]: specific binding

Compound: Compound III-labelled target oligonucleotide: 5′ C7 amino-modified TAC CCA GAC GAG CAA-biotin 3′ labelled with Compound III NHS ester (DNA TACCCAGACGAGCAA; DNA, 5' {C7NH2-CompoundIII}, 3' {Biotin}, backbone not given here)
- fluorescence signal (FRET) ([2]; incubated with Cy5-labelled probe): strong fluorescence signal
- fluorescence signal (FRET) ([2]; incubated with unlabelled probe): low fluorescence signals

Compound: casein
- reduction of the total signal [3]: 25%
- reduction of the total signal [4]: no effect

Compound: CC1(C)C2=C3C=C4C5=[N+](CCC4OC3CCN2c2ccc(CC(=O)O)cc21)c1ccc(CC(=O)O)cc1C5(C)C (centres unmarked) [Compound I, 6,7,9,10-Tetrahydro-2,14-carboxymethyl-16,16,18,18-tetramethyl-7aH,8aH-bisindolinium[3,2-a;3′2′-a′]pyrano[3,2-c;5,6-c′]dipyridin-5-ium]
- QY (Φ) ([5]; dye in methanol): 0.8
- λmax ([5]; dye in methanol): 565
- absorption maxima shifted to the red ([5]; in methanol, versus open chain Cy3 dyes): 12 nm
- brightness relative to the non-rigidized indocyanines ([5]; versus non-rigidized indocyanines): 10-12 time

Compound: p65: NF-kB p65 protein, specific competitor
- reduction of the total signal [3]: approximately 90%
- reduction of the total signal [4]: 40%
